Experiment [1] has as its target full-length MALT1 protein (Strep-MALT1(1-824)-His) (Homo sapiens (Human), UniProt Q9UDY8). As to the kind of experiment: MALT1 Biochemical Protease Assay (Ac-LRSR-AMC substrate). Conditions: 10 nM FL MALT1, 200 μM Ac-LRSR-AMC, 4 h at RT; read-out: MALT1_Biochemical activity (Ac-LRSR-amc) IC50. The essentials:
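Fluorescence from AMC release off the quenched LRSR substrate was read after a 4 h reaction at RT. Values were normalised to no-enzyme and uninhibited controls and fitted for IC50 and Hill coefficient.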

For experiment [2], the system named is IL6 secretion by OCI-LY3 ABC-DLBCL cells. The experiment is described as follows: Human IL6 Mesoscale assay (OCI-LY3). It is filed as cell-based. Conditions: Homo sapiens, 24 h. The essentials:
(§1)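 100,000 cells/well treated with compound in 9 twofold steps from 15 μM to 58.6 nM (0.3% DMSO) for 24 h at 37° C; supernatant cytokine measured by MSD electrochemiluminescence sandwich immunoassay. DMSO wells set maximum signal, BTK inhibitor RN486 (30 nM to 131 pM) set maximum inhibition.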

Experiment [3] deals with IL10 secretion by OCI-LY3 ABC-DLBCL cells. As to the kind of experiment: Human IL10 Mesoscale assay (OCI-LY3). It is filed as cell-based. Conditions: Homo sapiens, 24 h. A digest of the protocol: as §1
Another experiment relates to OCI-Ly3 cells. As to the kind of experiment: 4-day proliferation assay, OCI-Ly3. Conditions: Homo sapiens, 96 h, 4 days incubation, CellTiterGLO, read-out: Anti-proliferation: OCI-LY-3 IC50. It is filed as cell-based, human. The essentials:
(§2)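 Each line was plated at 10,000 cells per well for linear growth, with no beta-mercaptoethanol during the assay. OCI-Ly3 cells were below passage 10.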
(In general: Cellular ATP, detected with luciferase, serves as a proxy for viable cell number.)

For the next experiment, the system named is TMD8 cells. The experiment is described as follows: 4-day proliferation assay, TMD8. It is filed as cell-based. Conditions: Homo sapiens, 96 h, 4 days incubation, CellTiterGLO, read-out: Anti-proliferation: TMD-8 IC50. A digest of the protocol:
as §2

The test system of experiment [4] is IL6 secretion by TMD8 ABC-DLBCL cells. As to the kind of experiment: Human IL6 Mesoscale assay (TMD-8). It is filed as cell-based. Conditions: Homo sapiens, TMD8; TMD-8 cells, 24 h. The essentials: as §1
Experiment [5] relates to IL10 secretion by TMD8 ABC-DLBCL cells. As to the kind of experiment: Human IL10 Mesoscale assay (TMD-8). It is filed as cell-based. Conditions: Homo sapiens, TMD8; TMD-8 cells, 24 h. A digest of the protocol: as §1

SMILES strings stand for the structures. A value given as a limit tells only on which side of the number the result lay.

In patent publication US10954214B2 (Janssen Pharmaceutica NV, priority 2016, dated 2021) one finds IC50 data, which are given here for 15 molecules.

Sequence of full-length MALT1 protein (Strep-MALT1(1-824)-His) (Q9UDY8 whole entry): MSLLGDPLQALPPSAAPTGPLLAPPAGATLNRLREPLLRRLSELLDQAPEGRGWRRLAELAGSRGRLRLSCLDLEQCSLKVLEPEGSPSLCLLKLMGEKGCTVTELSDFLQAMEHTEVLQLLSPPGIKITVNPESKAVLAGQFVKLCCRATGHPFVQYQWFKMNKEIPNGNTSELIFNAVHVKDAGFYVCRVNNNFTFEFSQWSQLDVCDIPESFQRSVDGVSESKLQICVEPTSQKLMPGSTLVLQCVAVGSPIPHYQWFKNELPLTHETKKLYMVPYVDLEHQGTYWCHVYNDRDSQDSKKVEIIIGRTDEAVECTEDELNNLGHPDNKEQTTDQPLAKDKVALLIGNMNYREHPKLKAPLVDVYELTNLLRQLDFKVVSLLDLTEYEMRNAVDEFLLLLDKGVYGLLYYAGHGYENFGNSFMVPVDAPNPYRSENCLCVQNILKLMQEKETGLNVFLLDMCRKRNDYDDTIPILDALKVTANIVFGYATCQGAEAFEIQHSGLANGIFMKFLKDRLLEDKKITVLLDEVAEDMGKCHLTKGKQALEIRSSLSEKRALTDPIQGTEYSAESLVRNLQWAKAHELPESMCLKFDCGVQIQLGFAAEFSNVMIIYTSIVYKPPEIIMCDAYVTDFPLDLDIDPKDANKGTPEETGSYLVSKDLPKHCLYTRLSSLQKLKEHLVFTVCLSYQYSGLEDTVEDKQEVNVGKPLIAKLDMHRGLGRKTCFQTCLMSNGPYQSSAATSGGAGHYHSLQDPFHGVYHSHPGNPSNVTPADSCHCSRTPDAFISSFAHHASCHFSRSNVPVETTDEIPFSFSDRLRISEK

Take `Cc1nc(-n2nccn2)c(Cl)cc1NC(=O)c1cnn(-c2cccn3nccc23)c1C(F)(F)F`: the IC50 in experiment [1] stood at 26 nM; in experiment [2] it was 115 nM; in experiment [3], 91 nM; in the experiment with OCI-Ly3 cells, 641 nM; in the experiment on TMD8 cells it was 3020 nM.

On to `O=C(O)c1cnn(-c2ncc(NC(=O)c3cnn(-c4cccc5ncccc45)c3C(F)(F)F)cc2Cl)n1` [Cpd 109, 2-(3-chloro-5-(1-(quinolin-5-yl)-5-(trifluoromethyl)-1H-pyrazole-4-carboxamido)pyridin-2-yl)-2H-1,2,3-triazole-4-carboxylic acid], for which the IC50 in experiment [1] was 10 nM; in experiment [2] it was 28 nM; in experiment [3], 31 nM; in the experiment on OCI-Ly3 cells, > 20000 nM; in the experiment with TMD8 cells, > 20000 nM.

Take `Nc1ncc(-n2ncc(C(=O)Nc3cnc(-n4nccn4)c(Cl)c3)c2C(F)(F)F)c2cccc(F)c12` [Cpd 110, 1-(1-amino-8-fluoroisoquinolin-4-yl)-N-(5-chloro-6-(2H-1,2,3-triazol-2-yl)pyridin-3-yl)-5-(trifluoromethyl)-1H-pyrazole-4-carboxamide]: the IC50 in experiment [1] is 19 nM; in experiment [2], 25 nM; in experiment [3], 24 nM; in the experiment with OCI-Ly3 cells, 220 nM; in the experiment on TMD8 cells it was 1440 nM.

As for `N#Cc1cc(NC(=O)c2cnn(-c3cnc(N)c4c(F)cccc34)c2C(F)(F)F)cnc1-n1nccn1` [Cpd 111, 1-(1-amino-8-fluoroisoquinolin-4-yl)-N-(5-cyano-6-(2H-1,2,3-triazol-2-yl)pyridin-3-yl)-5-(trifluoromethyl)-1H-pyrazole-4-carboxamide], the IC50 turned out to be 10 nM in experiment [1]; 107 nM in experiment [2]; 89 nM in experiment [3]; 284 nM in the experiment with OCI-Ly3 cells; 3310 nM in the experiment with TMD8 cells.

Consider `Cc1nc(-n2nccn2)c(Cl)cc1NC(=O)c1cnn(-c2cccc3c(=O)[nH]ccc23)c1C(F)(F)F` [Cpd 112, N-(5-chloro-2-methyl-6-(2H-1,2,3-triazol-2-yl)pyridin-3-yl)-1-(1-oxo-1,2-dihydroisoquinolin-5-yl)-5-(trifluoromethyl)-1H-pyrazole-4-carboxamide], for which the IC50 was found to be 17 nM in experiment [1]; 115 nM in experiment [2]; 98 nM in experiment [3]; 966 nM in the experiment with OCI-Ly3 cells; 6310 nM with TMD8 cells.

Turning to `N#Cc1cc(NC(=O)c2cnn(-c3cccc4c(=O)[nH]ccc34)c2C(F)(F)F)cnc1-n1nccn1` [Cpd 113, N-(5-cyano-6-(2H-1,2,3-triazol-2-yl)pyridin-3-yl)-1-(1-oxo-1,2-dihydroisoquinolin-5-yl)-5-(trifluoromethyl)-1H-pyrazole-4-carboxamide], the IC50 came to 11 nM in experiment [1]; 170 nM in experiment [2]; 79 nM in experiment [3]; 912 nM in the experiment on OCI-Ly3 cells; 13800 nM in the experiment with TMD8 cells.

On to `N#Cc1cc(NC(=O)c2cnn(-c3cccc4ncsc34)c2C(F)(F)F)cnc1-n1nccn1` [Cpd 114, 1-(benzo[d]thiazol-7-yl)-N-(5-cyano-6-(2H-1,2,3-triazol-2-yl)pyridin-3-yl)-5-(trifluoromethyl)-1H-pyrazole-4-carboxamide], for which the IC50 in experiment [1] is 11 nM; in experiment [2], 34 nM; in experiment [3], 29 nM; in the experiment with OCI-Ly3 cells, 193 nM; with TMD8 cells, 2690 nM.

Take `O=C(Nc1cnc(-n2nccn2)c(Cl)c1)c1cnn(-c2cncc3c(F)cccc23)c1C(F)(F)F` [Cpd 117, N-(5-chloro-6-(2H-1,2,3-triazol-2-yl)pyridin-3-yl)-1-(8-fluoroisoquinolin-4-yl)-5-(trifluoromethyl)-1H-pyrazole-4-carboxamide]: the IC50 in experiment [1] worked out at 13 nM; in experiment [2], 12 nM; in experiment [3], 12 nM; in the experiment on OCI-Ly3 cells, 211 nM; with TMD8 cells it was 1580 nM.

As for `O=C(Nc1cnc(-n2nccn2)c(Cl)c1)c1cnn(-c2cnc(CO)c3ccccc23)c1C(F)(F)F` [Cpd 385, N-(5-chloro-6-(2H-1,2,3-triazol-2-yl)pyridin-3-yl)-1-(1-(hydroxymethyl)isoquinolin-4-yl)-5-(trifluoromethyl)-1H-pyrazole-4-carboxamide], the IC50 came out at 54 nM in experiment [1]; 214 nM in experiment [4]; 166 nM in experiment [5]; 837 nM in the experiment on OCI-Ly3 cells; 1510 nM in the experiment on TMD8 cells.

As to `NC(=O)c1ncc(-n2ncc(C(=O)Nc3cnc(-n4nccn4)c(Cl)c3)c2C(F)(F)F)c2ccsc12` [Cpd 391, 4-(4-((5-chloro-6-(2H-1,2,3-triazol-2-yl)pyridin-3-yl)carbamoyl)-5-(trifluoromethyl)-1H-pyrazol-1-yl)thieno[2,3-c]pyridine-7-carboxamide], the IC50 is 7 nM in experiment [1]; 45 nM in experiment [4]; 31 nM in experiment [5]; 505 nM in the experiment with OCI-Ly3 cells; 676 nM with TMD8 cells.

As for `O=C(Nc1cnc(-n2nccn2)c(Cl)c1)c1cnn(-c2cc[n+]([O-])c3ccccc23)c1C(F)(F)F` [Cpd 405, 4-(4-((5-chloro-6-(2H-1,2,3-triazol-2-yl)pyridin-3-yl)carbamoyl)-5-(trifluoromethyl)-1H-pyrazol-1-yl)quinoline 1-oxide], the IC50 in experiment [1] is 44 nM; in experiment [4], 457 nM; in experiment [5] it was 178 nM; with OCI-Ly3 cells it was 513 nM; in the experiment on TMD8 cells, 4360 nM.

Turning to `N#Cc1nccc2c(-n3ncc(C(=O)Nc4cnc(-n5nccn5)c(Cl)c4)c3C(F)(F)F)cccc12` [Cpd 411, N-(5-chloro-6-(2H-1,2,3-triazol-2-yl)pyridin-3-yl)-1-(1-cyanoisoquinolin-5-yl)-5-(trifluoromethyl)-1H-pyrazole-4-carboxamide], the IC50 in experiment [1] is 33 nM; in experiment [4] it was 2510 nM; in experiment [5], 2340 nM; in the experiment with OCI-Ly3 cells it was 486 nM; with TMD8 cells, 871 nM.

In the case of `Cn1c(=O)cc(-n2ncc(C(=O)Nc3cnc(-n4nccn4)c(Cl)c3)c2C(F)(F)F)c2ccccc21` [Cpd 419, N-(5-chloro-6-(2H-1,2,3-triazol-2-yl)pyridin-3-yl)-1-(1-methyl-2-oxo-1,2-dihydroquinolin-4-yl)-5-(trifluoromethyl)-1H-pyrazole-4-carboxamide], the IC50 came to 15 nM in experiment [1], 1660 nM in experiment [2], 1120 nM in the experiment with OCI-Ly3 cells and 5750 nM in the experiment on TMD8 cells.

For `N#Cc1cc(NC(=O)c2cnn(-c3nccn4nccc34)c2C(F)(F)F)cnc1-n1nccn1` [Cpd 425, N-(5-cyano-6-(2H-1,2,3-triazol-2-yl)pyridin-3-yl)-1-(pyrazolo[1,5-a]pyrazin-4-yl)-5-(trifluoromethyl)-1H-pyrazole-4-carboxamide], the IC50 in experiment [1] amounted to 389 nM; in experiment [4], 339 nM; in experiment [5], 112 nM; in the experiment with OCI-Ly3 cells, 905 nM; with TMD8 cells, 11000 nM.

With `O=C(Nc1cnc(-c2nccs2)c(Cl)c1)c1cnn(-c2cncc3ccccc23)c1C(F)(F)F` [compound 63, N-(5-chloro-6-(thiazol-2-yl)pyridin-3-yl)-1-(isoquinolin-4-yl)-5-(trifluoromethyl)-1H-pyrazole-4-carboxamide], the IC50 was 295 nM in experiment [1]; 2040 nM in experiment [4]; 1440 nM in experiment [5]; ~1150 nM with OCI-Ly3 cells; > 7940 nM in the experiment on TMD8 cells.
